Structures can show the parent of a compound that is named as a salt.
Biological target: T1, recombinant guanylate cyclase reporter cell line (Rattus norvegicus, UniProt P19686+P20595)
T1 construct: expressed in transfected cells; host or cells: recombinant reporter cell line
T1 sequence (P19686 1-690): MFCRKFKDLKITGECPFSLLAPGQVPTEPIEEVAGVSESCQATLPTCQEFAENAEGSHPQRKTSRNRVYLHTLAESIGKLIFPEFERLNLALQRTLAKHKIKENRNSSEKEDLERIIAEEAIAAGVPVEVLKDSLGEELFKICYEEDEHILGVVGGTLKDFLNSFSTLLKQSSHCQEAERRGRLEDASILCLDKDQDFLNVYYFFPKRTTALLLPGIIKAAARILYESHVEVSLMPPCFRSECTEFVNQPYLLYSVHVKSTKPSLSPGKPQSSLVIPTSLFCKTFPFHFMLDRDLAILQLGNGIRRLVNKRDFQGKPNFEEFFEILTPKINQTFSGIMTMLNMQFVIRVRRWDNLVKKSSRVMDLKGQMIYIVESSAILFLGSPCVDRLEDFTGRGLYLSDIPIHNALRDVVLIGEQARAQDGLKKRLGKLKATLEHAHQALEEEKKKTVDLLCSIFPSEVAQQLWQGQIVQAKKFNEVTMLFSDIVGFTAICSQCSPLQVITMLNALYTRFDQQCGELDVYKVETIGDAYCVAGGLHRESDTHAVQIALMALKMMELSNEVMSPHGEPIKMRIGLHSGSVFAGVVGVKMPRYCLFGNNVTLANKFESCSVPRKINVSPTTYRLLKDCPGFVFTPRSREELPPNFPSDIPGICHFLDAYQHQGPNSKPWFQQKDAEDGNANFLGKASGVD
T1 sequence (P20595 1-619): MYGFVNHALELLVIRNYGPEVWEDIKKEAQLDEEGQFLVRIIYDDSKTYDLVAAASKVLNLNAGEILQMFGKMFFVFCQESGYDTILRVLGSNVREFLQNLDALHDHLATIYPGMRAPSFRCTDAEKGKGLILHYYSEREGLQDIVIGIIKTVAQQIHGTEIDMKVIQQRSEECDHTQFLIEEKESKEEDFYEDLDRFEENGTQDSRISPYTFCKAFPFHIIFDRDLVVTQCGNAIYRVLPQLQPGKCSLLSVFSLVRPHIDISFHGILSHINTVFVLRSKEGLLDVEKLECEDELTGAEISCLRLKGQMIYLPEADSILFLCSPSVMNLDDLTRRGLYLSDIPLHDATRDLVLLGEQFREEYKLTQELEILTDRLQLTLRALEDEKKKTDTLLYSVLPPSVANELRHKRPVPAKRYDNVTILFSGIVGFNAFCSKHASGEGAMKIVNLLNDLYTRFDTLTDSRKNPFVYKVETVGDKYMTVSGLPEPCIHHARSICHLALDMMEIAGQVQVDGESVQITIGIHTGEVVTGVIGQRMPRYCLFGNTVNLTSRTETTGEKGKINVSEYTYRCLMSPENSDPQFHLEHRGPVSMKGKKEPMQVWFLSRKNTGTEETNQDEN
Experiment: Action on recombinant guanylate cyclase reporter cell line
Format: cell-based
Settings: in some cases mean values from individual determinations
Description: B-2. Action on Recombinant Guanylate Cyclase Reporter Cell Line
The cellular action of the compounds according to the invention is determined on a recombinant guanylate cyclase reporter cell line, as described in F. Wunder et al., Anal. Biochem. 339, 104-112 (2005).
Representative MEC values (MEC=minimal effective concentration) for the compounds according to the invention are shown in the following table (in some cases as mean values obtained from individual determinations): […]

Cc1nc2c(OCc3c(F)cccc3F)cccn2c1C(=O)NC(CN)c1ccc(F)c(F)c1 (racemic) [Example 11, rac-N-[2-Amino-1-(3,4-difluorophenyl)ethyl]-8-[(2,6-difluorobenzyl)oxy]-2-methylimidazo[1,2-a]pyridine-3-carboxamide]
MEC (minimal effective concentration): 0.30 µM

Cc1cc(OCc2c(F)cccc2F)c2nc(C)c(C(=O)NCC(N)C#N)n2c1 (single isomer, unassigned; enantiomer b) [Example 402, ent-N-(2-amino-2-cyanoethyl)-8-[(2,6-difluorobenzyl)oxy]-2,6-dimethylimidazo[1,2-a]pyridine-3-carboxamide (Enantiomer B)]
MEC (minimal effective concentration): 0.30 µM

Cc1cc(OCc2c(F)cccc2F)c2nc(C)c(C(=O)NCC(N)c3cc(F)c(F)c(F)c3)n2c1 (racemic) [Example 374, rac-N-[2-amino-2-(3,4,5-trifluorophenyl)ethyl]-8-[(2,6-difluorobenzyl)oxy]-2,6-dimethylimidazo[1,2-a]pyridine-3-carboxamide]
MEC (minimal effective concentration): 1.00 µM

Cc1cc(OCc2c(F)cccc2F)c2nc(C)c(C(=O)NC3(C)CCC3(C)N)n2c1 (single isomer, unassigned; enantiomer b) [Example 337, ent-N-[(2-amino-1,2-dimethylcyclobutyl]-8-[(2,6-difluorobenzyl)oxy]-2,6-dimethylimidazo[1,2-a]pyridine-3-carboxamide (Enantiomer B)]
MEC (minimal effective concentration): 0.55 µM

Cc1cc(OCc2c(F)cccc2F)c2nc(C)c(C(=O)NC[C@@H]3CCCN3)n2c1 [Example 115, 8-[(2,6-difluorobenzyl)oxy]-2,6-dimethyl-N-[(2S)-pyrrolidin-2-ylmethyl]imidazo[1,2-a]-pyridine-3-carboxamide]
MEC (minimal effective concentration): 1.00 µM

Cc1cc(OCc2c(F)cccc2F)c2nc(C)c(C(=O)NCC(C)N3CCOCC3)n2c1 (single isomer, unassigned; ent-8) [Example 187, ent-8-[(2,6-Difluorobenzyl)oxy]-2,6-dimethyl-N-[2-(morpholin-4-yl)propyl]imidazo[1,2-a]-pyridine-3-carboxamide]
MEC (minimal effective concentration): 0.30 µM

Cc1nc2c(OCc3c(F)cccc3F)cccn2c1C(=O)NC1CCNc2ccc(F)cc21 (single isomer, unassigned; ent-8) [Example 106, ent-8-[(2,6-difluorobenzyl)oxy]-N-(6-fluoro-1,2,3,4-tetrahydroquinolin-4-yl)-2-methylimidazo[1,2-a]pyridine-3-carboxamide]
MEC (minimal effective concentration): 0.03 µM

Cc1nc2c(OCc3c(F)cccc3F)cc(Cl)cn2c1C(=O)NCC(C)(N)C(F)(F)F (single isomer, unassigned) [Example 238, ent-N-(2-Amino-3,3,3-trifluoro-2-methylpropyl)-6-chloro-8-[(2,6-difluorobenzyl)oxy]-2-methyl-imidazo[1,2-a]pyridine-3-carboxamide]
MEC (minimal effective concentration): 1.00 µM

Cc1nc2c(OCc3c(F)cccc3F)cccn2c1C(=O)N[C@H](C)CN1CCOCC1 [Example 170, 8-[(2,6-difluorobenzyl)oxy]-2-methyl-N-[(2R)-1-(morpholin-4-yl)propan-2-yl]imidazo[1,2-a]-pyridine-3-carboxamide]
MEC (minimal effective concentration): 3.00 µM

Cc1nc2c(OCc3c(F)cccc3F)cc(Cl)cn2c1C(=O)NC(C)CN (stereo not drawn) [Example 22, ent-N-(1-aminopropan-2-yl)-6-chloro-8-[(2,6-difluorobenzyl)oxy]-2-methylimidazo[1,2-a]-pyridine-3-carboxamide]
MEC (minimal effective concentration): 0.30 µM

CCCC(C)(N)CNC(=O)c1c(C)nc2c(OC(C)c3c(F)cccc3F)cc(C)cn12 (centres unmarked) [Example 257, N-(2-Amino-2-methylpentyl)-8-[1-(2,6-difluorophenyl)ethoxy]-2,6-dimethylimidazo[1,2-a]-pyridine-3-carboxamide]
MEC (minimal effective concentration): 1.00 µM

Cc1nc2c(OCc3c(F)cccc3F)cc(Cl)cn2c1C(=O)NCC(N)CC(F)(F)F (single isomer, unassigned) [Example 192, ent-N-(2-Amino-4,4,4-trifluorobutyl)-6-chloro-8-[(2,6-difluorobenzyl)oxy]-2-methylimidazo[1,2-a]pyridine-3-carboxamide]
MEC (minimal effective concentration): 0.30 µM

Cc1cc(OCc2c(F)cccc2F)c2nc(C)c(C(=O)NC(CN)c3ccc([N+](=O)[O-])cc3)n2c1 (racemic) [Example 384, rac-N-[2-amino-1-(4-nitrophenyl)ethyl]-8-[(2,6-difluorobenzyl)oxy]-2,6-dimethylimidazo[1,2-a]pyridine-3-carboxamide]
MEC (minimal effective concentration): 0.30 µM

Cc1nc2c(OCc3c(F)cccc3F)cccn2c1C(=O)NCCN1CCN(C2CC2)CC1 [Example 168, N-[2-(4-Cyclopropylpiperazin-1-yl)ethyl]-8-[(2,6-difluorobenzyl)oxy]-2-methylimidazo[1,2-a]-pyridine-3-carboxamide]
MEC (minimal effective concentration): 1.00 µM

Cc1nc2c(OCc3c(F)cccc3F)cc(F)cn2c1C(=O)NC(CN)c1ccc(F)c(F)c1 (stereo not drawn) [Example 53, ent-N-[2-Amino-1-(3,4-difluorophenyl)ethyl]-8-[(2,6-difluorobenzyl)oxy]-6-fluoro-2-methyl-imidazo[1,2-a]pyridine-3-carboxamide]
MEC (minimal effective concentration): 0.30 µM

Cc1nc2c(OCc3c(F)cccc3F)cccn2c1C(=O)NC1CN2CCC1CC2 (centres unmarked) [Example 92, N-(1-azabicyclo[2.2.2]oct-3-yl)-8-[(2,6-difluorobenzyl)oxy]-2-methylimidazo[1,2-a]-pyridine-3-carboxamide]
MEC (minimal effective concentration): 0.30 µM

CCC(C)(N)CNC(=O)c1c(C)nc2c(OCc3c(F)ccc(F)c3F)cc(C)cn12 (single isomer, unassigned; enantiomer a) [Example 300, ent-N-(2-amino-2-methylbutyl)-2,6-dimethyl-8-[(2,3,6-trifluorobenzyl)oxy]imidazo[1,2-a]pyridine-3-carboxamide (Enantiomer A) hydrochloride]
MEC (minimal effective concentration): 0.10 µM

Cc1cc(OCc2c(F)cccc2F)c2nc(C)c(C(=O)NCC(N)C(C)C)n2c1 (single isomer, unassigned) [Example 224, ent-N-(2-Amino-3-methylbutyl)-8-[(2,6-difluorobenzyl)oxy]-2,6-dimethylimidazo[1,2-a]pyridine-3-carboxamide]
MEC (minimal effective concentration): 0.30 µM

Cc1nc2c(OCc3c(F)ccc(F)c3F)cccn2c1C(=O)NC(CN)c1ccc(F)c(F)c1 (stereo not drawn) [Example 100, ent-N-[2-amino-1-(3,4-difluorophenyl)ethyl]-2-methyl-8-[(2,3,6-trifluorobenzyl)oxy]imidazo[1,2-a]pyridine-3-carboxamide]
MEC (minimal effective concentration): 0.30 µM

Cc1nc2c(OCc3c(F)cccc3F)cccn2c1C(=O)NC(C)[C@@H](C)N (single isomer, unassigned) [Example 177]
MEC (minimal effective concentration): 1.00 µM

C=Cc1cccc(C(CN)NC(=O)c2c(C)nc3c(OCc4c(F)cccc4F)cc(C)cn23)c1 (racemic) [Example 385, rac-N-[2-amino-1-(3-ethenylphenyl)ethyl]-8-[(2,6-difluorobenzyl)oxy]-2,6-dimethylimidazo[1,2-a]pyridine-3-carboxamide]
MEC (minimal effective concentration): 1.00 µM

Cc1nc2c(OCc3c(F)cccc3F)cc(Cl)cn2c1C(=O)NCC(C)(N)C(F)(F)F (single isomer, unassigned) [Example 237, ent-N-(2-Amino-3,3,3-trifluoro-2-methylpropyl)-6-chloro-8-[(2,6-difluorobenzyl)oxy]-2-methyl-imidazo[1,2-a]pyridine-3-carboxamide]
MEC (minimal effective concentration): 0.30 µM

Cc1cc(OCc2c(F)cccc2F)c2nc(C)c(C(=O)NC3CCCC(N)C3)n2c1 (centres unmarked) [Example 160, N-(3-aminocyclohexyl)-8-[(2,6-difluorobenzyl)oxy]-2,6-dimethylimidazo[1,2-a]-pyridine-3-carboxamide]
MEC (minimal effective concentration): 1.00 µM
